From paper PMC9736855, “Discovery of 3-Amino-1H-pyrazole-Based Kinase Inhibitors to Illuminate the Understudied PCTAIRE Family” (International Journal of Molecular Sciences, 2022)

Assays:
GSK3B = GSK3B (Homo sapiens, UniProt P49841); assay: DSF; format: binding; parameters: purchased in-house DSF panel (SGC Frankfurt); settings: 10 μM compound
Source text: (§1) To investigate the selectivity profile of the different series, a differential scanning fluorimetry (DSF) assay was used. This assay offers a rapid and sensitive screening method that determines the denaturation temperature of a protein in absence and presence of a compound. This assay format measures the fluorescence of a dye, which depends on the folding state of the protein. The difference between the melting temperature (ΔTm) in the absence and presence of the compound represents the binding strength to the protein.
(§2) Measurements were performed in duplicates.

CDK2 = biological target: T1, CDK2 (Homo sapiens, UniProt P24941); assay: DSF; format: binding; settings: 10 μM compound
T1 construct: purchased in-house DSF panel (SGC Frankfurt)
Source text: as §1, §2

CDK16 = biological target: T2, CDK16 (Homo sapiens, UniProt Q00536); assay: DSF; format: binding; settings: 10 μM compound
T2 construct: purchased in-house DSF panel (SGC Frankfurt)
Source text: as §1, §2

CDK16/Cyclin Y = biological target: T3, CDK16/Cyclin Y (Homo sapiens, UniProt Q00536); assay: NanoBRET; format: cell-based; settings: Figure 7, 11-point dose-response in duplicates; read-out: NanoBRET EC50 ± SEM against CDK16
T3 construct: Full-length kinases were obtained as plasmids cloned in frame with a terminal NanoLuc-fusion; CS1810C178 (CCNY); host or cells: HEK293T
Protocol: Next, to specifically quantify the outcome of the cellular activity of the compounds, a NanoBRET cellular target engagement assay was performed. The determination of the cellular potency on CDK16 correlated well with the corresponding DSF assay data (Figure S2). […] As mentioned before, the exchange from a methyl ester to an iso-propyl or tert-butyl ester led to a higher stabilization of the kinase in the DSF assay, which correlated with an increase in cellular potency as determined in the NanoBRET assay. […] The number of potential off-targets was low with 1 and 2 kinases with ΔTm >5 °C (Figure 4), highlighting these inhibitors for more comprehensive selectivity studied within the CDK and particular the TAIRE subfamily.
The assay was performed as described previously. In brief: Full-length kinases were obtained as plasmids cloned in frame with a terminal NanoLuc-fusion (Promega, Madison, WI, USA), as specified in table (Table S6). Plasmids were transfected into HEK293T cells using FuGENE HD (Promega, E2312) and proteins were allowed to express for 20h. Serially diluted inhibitor and NanoBRET Kinase Tracer (Promega) at a concentration determined previously as the KD,app (Table S5) were pipetted into white 384-well plates (Greiner 781207) using an Echo acoustic dispenser (Labcyte, San Jose, CA, USA). The corresponding protein-transfected cells were added and reseeded at a density of 2.5 × 10^5 cells/mL after trypsinization and resuspending in Opti-MEM without phenol red (Life Technologies, Carlsbad, CA, USA). The system was allowed to equilibrate for 2 h at 37 °C/5% CO2 prior to BRET measurements. To measure BRET, NanoBRET NanoGlo Substrate + Extracellular NanoLuc Inhibitor (Promega, N2540) was added as per the manufacturer’s protocol, and filtered luminescence was measured on a PHERAstar plate reader (BMG Labtech, Ortenberg, Germany) equipped with a luminescence filter pair (450 nm BP filter (donor) and 610 nm LP filter (acceptor)). Competitive displacement data were then graphed using GraphPad Prism 9 software using a normalized 3-parameter curve fit with the following equation: Y = 100/(1 + 10^(X–LogEC50)).

T2 sequence (Q00536 163-478): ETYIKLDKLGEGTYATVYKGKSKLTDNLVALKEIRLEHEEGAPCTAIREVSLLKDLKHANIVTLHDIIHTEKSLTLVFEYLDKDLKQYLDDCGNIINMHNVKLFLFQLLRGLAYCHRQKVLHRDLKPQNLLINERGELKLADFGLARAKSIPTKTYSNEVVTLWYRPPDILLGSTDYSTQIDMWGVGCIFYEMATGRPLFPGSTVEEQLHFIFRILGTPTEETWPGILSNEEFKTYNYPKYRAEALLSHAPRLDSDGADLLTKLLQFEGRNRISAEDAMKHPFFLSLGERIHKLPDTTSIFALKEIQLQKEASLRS
T3 sequence (Q00536 whole entry, the tested form may be a part): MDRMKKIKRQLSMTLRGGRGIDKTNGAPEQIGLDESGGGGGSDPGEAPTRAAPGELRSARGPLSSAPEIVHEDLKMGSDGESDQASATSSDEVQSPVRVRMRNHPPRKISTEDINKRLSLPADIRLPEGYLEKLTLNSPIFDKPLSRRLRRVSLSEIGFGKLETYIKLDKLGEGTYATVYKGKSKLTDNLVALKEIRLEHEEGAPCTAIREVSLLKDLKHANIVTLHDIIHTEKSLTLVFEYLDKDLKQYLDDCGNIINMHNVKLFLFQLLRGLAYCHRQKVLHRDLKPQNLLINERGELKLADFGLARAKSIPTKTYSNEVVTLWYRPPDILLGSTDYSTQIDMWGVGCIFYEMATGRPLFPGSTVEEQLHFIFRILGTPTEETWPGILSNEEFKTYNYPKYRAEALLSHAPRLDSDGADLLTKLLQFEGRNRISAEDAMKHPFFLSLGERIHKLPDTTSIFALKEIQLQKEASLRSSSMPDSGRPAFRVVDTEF
T3 sequence (Q8ND76 2-341 partner limits assumed): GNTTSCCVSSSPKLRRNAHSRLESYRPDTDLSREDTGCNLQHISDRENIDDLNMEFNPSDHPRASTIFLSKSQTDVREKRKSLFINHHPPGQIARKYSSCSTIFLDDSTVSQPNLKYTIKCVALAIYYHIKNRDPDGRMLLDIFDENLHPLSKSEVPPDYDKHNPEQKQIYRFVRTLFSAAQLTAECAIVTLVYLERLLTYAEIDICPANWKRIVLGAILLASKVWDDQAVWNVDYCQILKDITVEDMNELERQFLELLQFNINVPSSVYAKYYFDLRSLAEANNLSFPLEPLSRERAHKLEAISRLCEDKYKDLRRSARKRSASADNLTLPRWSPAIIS
Sequence of GSK3B (P49841 35-386): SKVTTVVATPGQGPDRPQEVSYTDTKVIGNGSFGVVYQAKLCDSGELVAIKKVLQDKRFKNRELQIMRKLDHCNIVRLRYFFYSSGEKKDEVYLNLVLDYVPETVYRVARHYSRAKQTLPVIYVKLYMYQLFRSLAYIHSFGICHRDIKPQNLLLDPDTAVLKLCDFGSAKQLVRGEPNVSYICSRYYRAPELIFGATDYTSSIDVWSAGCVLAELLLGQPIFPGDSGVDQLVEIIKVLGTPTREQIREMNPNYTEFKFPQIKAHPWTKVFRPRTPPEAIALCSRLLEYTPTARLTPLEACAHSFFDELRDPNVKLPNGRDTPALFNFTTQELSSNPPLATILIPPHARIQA

| Structure (SMILES) | ΔTm at 10 µM (GSK3B) | ΔTm at 10 µM (CDK2) | ΔTm at 10 µM (CDK16) | EC50 (CDK16/Cyclin Y) |
| --- | --- | --- | --- | --- |
| COC(=O)c1cc(Nc2nc(Nc3cccc(CCNC(=O)OC(C)(C)C)c3)ncc2Cl)[nH]n1 [22b, methyl 5-((2-((3-(2-((tert-butoxycarbonyl)amino)ethyl)phenyl)amino)-5-chloropyrimidin-4-yl)amino)-1H-pyrazole-3-carboxylate] | 3.9 ± 0.6 °C | 2.1 ± 0.1 °C | 0.8 ± 0.1 °C | 3190 ± 589 nM |
| COC(=O)c1cc(Nc2nc(Nc3ccc(CCNC(=O)OC(C)(C)C)cc3)ncc2Cl)[nH]n1 [22a, methyl 5-((2-((4-(2-((tert-butoxycarbonyl)amino)ethyl)phenyl)amino)-5-chloropyrimidin-4-yl)amino)-1H-pyrazole-3-carboxylate] | 3.3 ± 0.5 °C | 2 ± 0.3 °C | 0.3 ± 0.1 °C | 1860 ± 276 nM |
| Cc1cnc(Nc2ccc(CCNC(=O)OC(C)(C)C)cc2)nc1Nc1cc(C2CC2)n[nH]1 [12a, tert-butyl 4-((4-((3-cyclopropyl-1H-pyrazol-5-yl)amino)-5-methylpyrimidin-2-yl)amino)-phenethylcarbamate] | 5.7 ± 0.2 °C | 8.7 ± 0.1 °C | 6.2 ± 0.1 °C | 172 ± 20.9 nM |
| Cc1cnc(NCCOCCNC(=O)OC(C)(C)C)nc1Nc1cc(C2CC2)n[nH]1 [12d, tert-butyl (2-(2-((4-((3-cyclopropyl-1H-pyrazol-5-yl)amino)-5-methylpyrimidin-2-yl)amino)ethoxy)ethyl)carbamate] | 6.6 °C | 5.3 °C | 5.8 ± 0.1 °C | 619 ± 32 nM |
| COC(=O)c1cc(Nc2ccnc(NCc3ccc(CNC(=O)OC(C)(C)C)cc3)n2)[nH]n1 [21g, methyl 5-((2-((4-(((tert-butoxycarbonyl)amino)methyl)benzyl)amino)pyrimidin-4-yl)amino)-1H-pyrazole-3-carboxylate] | 7.7 ± 0.1 °C | 3.3 ± 0.1 °C | 5.3 ± 0.1 °C | 879 ± 5.5 nM |
| Cc1cnc(Nc2cccc(CCNC(=O)OC(C)(C)C)c2)nc1Nc1cc(C2CC2)n[nH]1 [12b, tert-butyl 3-((4-((3-cyclopropyl-1H-pyrazol-5-yl)amino)-5-methylpyrimidin-2-yl)amino)-phenethylcarbamate] | 5.1 °C | 4.7 °C | 3.7 ± 0.1 °C | 1100 ± 44.5 nM |
| CC(C)(C)OC(=O)NCc1ccc(CNc2nccc(Nc3cc(C4CC4)n[nH]3)n2)cc1 [11f, tert-butyl 4-(((4-((3-cyclopropyl-1H-pyrazol-5-yl)amino)pyrimidin-2-yl)amino)methyl)-benzylcarbamate] | 6.3 ± 0.1 °C | 8.4 ± 0.1 °C | 7.6 ± 0.2 °C | 110 ± 9.7 nM |
| COC(=O)c1cc(Nc2ccnc(NCCCCCNC(=O)OC(C)(C)C)n2)[nH]n1 [21c, methyl 5-((2-((5-((tert-butoxycarbonyl)amino)pentyl)amino)pyrimidin-4-yl)amino)-1H-pyrazole-3-carboxylate] | 8.6 °C | 5.6 °C | 8.5 ± 0.2 °C | 107 nM |
| CC(C)(C)OC(=O)NCCOCCNc1nccc(Nc2cc(C3CC3)n[nH]2)n1 [11d, tert-butyl (2-(2-((4-((3-cyclopropyl-1H-pyrazol-5-yl)amino)pyrimidin-2-yl)amino)ethoxy)-ethyl)carbamate] | 5.9 ± 0.2 °C | 6.3 ± 0.2 °C | 7.3 ± 0.1 °C | 67 ± 1.3 nM |
| Cc1cnc(NCCCCCNC(=O)OC(C)(C)C)nc1Nc1cc(C2CC2)n[nH]1 [12c, tert-butyl (5-((4-((3-cyclopropyl-1H-pyrazol-5-yl)amino)-5-methylpyrimidin-2-yl)amino)-pentyl)carbamate] | 6.1 ± 0.1 °C | 7.2 ± 0.2 °C | 6.5 ± 0.1 °C | 176 ± 3 nM |
| CC(C)(C)OC(=O)NCCc1ccc(Nc2nccc(Nc3cc(C4CC4)n[nH]3)n2)cc1 [11a, tert-butyl 4-((4-((3-cyclopropyl-1H-pyrazol-5-yl)amino)pyrimidin-2-yl)amino)phenethyl-carbamate] | 8.2 ± 0.1 °C | 12.3 °C | 8.7 °C | 35 nM |
| COC(=O)c1cc(Nc2nc(NCCOCCNC(=O)OC(C)(C)C)ncc2Cl)[nH]n1 [22d, methyl 5-((2-((2-(2-((tert-butoxycarbonyl)amino)ethoxy)ethyl)amino)-5-chloropyrimidin-4-yl)amino)-1H-pyrazole-3-carboxylate] | 2.1 ± 0.1 °C | 0.2 °C | 0.2 ± 0.2 °C | 25000 ± 4220 nM |
| COC(=O)c1cc(Nc2ccnc(Nc3ccc(CCNC(=O)OC(C)(C)C)cc3)n2)[nH]n1 [21a, methyl 5-((2-((4-(2-((tert-butoxycarbonyl)amino)ethyl)phenyl)amino)pyrimidin-4-yl)amino)-1H-pyrazole-3-carboxylate] | 7.8 ± 0.2 °C | 3.1 ± 0.2 °C | 4.3 ± 0.4 °C | 652 ± 15.6 nM |
| COC(=O)c1cc(Nc2nc(Nc3ccc(CCNC(=O)OC(C)(C)C)cc3)nc3ccccc23)[nH]n1 [23a, methyl 5-((2-((4-(2-((tert-butoxycarbonyl)amino)ethyl)phenyl)amino)quinazolin-4-yl)amino)-1H-pyrazole-3-carboxylate] | 1 ± 0.1 °C | -0.1 ± 0.1 °C | 3.4 ± 0.6 °C | 9360 ± 1020 nM |

Next, values leading:

| ΔTm at 10 µM (GSK3B) | ΔTm at 10 µM (CDK2) | ΔTm at 10 µM (CDK16) | EC50 (CDK16/Cyclin Y) | Structure (SMILES) |
| --- | --- | --- | --- | --- |
| 4.6 ± 0.1 °C | 4.7 ± 0.1 °C | 5.8 ± 0.2 °C | 253 ± 19.2 nM | Cc1cc(Nc2ccnc(NCCCCCNC(=O)OC(C)(C)C)n2)[nH]n1 [38b, tert-butyl (5-((4-((3-methyl-1H-pyrazol-5-yl)amino)pyrimidin-2-yl)amino)pentyl)-carbamate] |
| 5.7 °C | 5.8 ± 0.1 °C | 4.4 ± 0.1 °C | 1130 ± 20.5 nM | CC(C)(C)OC(=O)NCCc1ccc(Nc2nccc(Nc3cc(C(C)(C)C)n[nH]3)n2)cc1 [40a, tert-butyl 4-((4-((3-(tert-butyl)-1H-pyrazol-5-yl)amino)pyrimidin-2-yl)amino)phenethyl-carbamate] |
| 7 ± 0.1 °C | 9.8 ± 1.3 °C | 7.9 ± 0.4 °C | 70 ± 4.9 nM | CC(C)c1cc(Nc2ccnc(Nc3ccc(CCNC(=O)OC(C)(C)C)cc3)n2)[nH]n1 [39a, tert-butyl 4-((4-((3-isopropyl-1H-pyrazol-5-yl)amino)pyrimidin-2-yl)amino)phenethyl-carbamate] |
| 10.4 °C | 10.7 ± 0.1 °C | 5.7 ± 0.1 °C | 351 ± 34.1 nM | CC(C)(C)c1cc(Nc2ccnc(Nc3ccc(CC#N)cc3)n2)[nH]n1 [40c, 2-(4-((4-((3-(tert-butyl)-1H-pyrazol-5-yl)amino)pyrimidin-2-yl)amino)phenyl)acetonitrile] |
| 9.3 ± 0.1 °C | 2.7 ± 0.2 °C | 1.4 ± 0.4 °C | 5550 ± 636 nM | CNC(=O)c1cc(Nc2ccnc(Nc3ccc(CC#N)cc3)n2)[nH]n1 [41c, 5-((2-((4-(cyanomethyl)phenyl)amino)pyrimidin-4-yl)amino)-N-methyl-1H-pyrazole-3-carboxamide] |
| 10.4 ± 0.1 °C | 10.7 ± 0.1 °C | 5.7 ± 0.2 °C | 388 ± 32 nM | Cc1cc(Nc2ccnc(Nc3ccc(CCNC(=O)OC(C)(C)C)cc3)n2)[nH]n1 [38a, tert-butyl 4-((4-((3-methyl-1H-pyrazol-5-yl)amino)pyrimidin-2-yl)amino)phenethyl-carbamate] |
| 6.2 ± 0.1 °C | 9.5 ± 0.1 °C | 8.6 ± 0.1 °C | 47 ± 4.1 nM | CC(C)c1cc(Nc2ccnc(NCCCCCNC(=O)OC(C)(C)C)n2)[nH]n1 [39b, tert-butyl (5-((4-((3-isopropyl-1H-pyrazol-5-yl)amino)pyrimidin-2-yl)amino)pentyl)-carbamate] |
| 4.9 ± 0.1 °C | 4.3 ± 0.1 °C | 5.1 ± 0.1 °C | 504 ± 9.3 nM | CC(C)(C)OC(=O)NCCCCCNc1nccc(Nc2cc(C(C)(C)C)n[nH]2)n1 [40b, tert-butyl (5-((4-((3-(tert-butyl)-1H-pyrazol-5-yl)amino)pyrimidin-2-yl)amino)pentyl)-carbamate] |
